Reference: article PMC4433173, “Five hTRPA1 Agonists Found in Indigenous Korean Mint, Agastache rugosa” (PLoS ONE, 2015)
Where two headings read alike, the source gives them in different places.

Experiments:
Assay type in all cases: cell-based
hTRPA1 [1] = biological target: T1, hTRPA1 (Homo sapiens, UniProt O75762); assay: Cytosolic Ca2+ measurement with Fluo-4 AM on a fluorescence plate reader (FlexStation III), ΔRFU dose-response; conditions: for Hill slope of Ca2+ concentration-response curve: n = 7; for agonist type at hTRPA1 (full / partial): judged from maximum ΔRFU versus AITC
T1 construct: expressed in transfected cells
Protocol: Flp-In 293 cells stably expressing hTRPA1 [22] were a gift from Dr. Takumi Misaka (University of Tokyo, Tokyo, Japan). The hTRPA1-expressing cells were maintained in Dulbecco’s modified Eagle’s medium (DMEM; Invitrogen, Carlsbad, CA, USA) containing 10% fetal bovine serum (FBS; Invitrogen) and 0.2% hygromycin B (Invitrogen). […] All cells were incubated at 37°C in a humidified atmosphere containing 5% CO2. Cultured hTRPA1-expressing cells and Flp-In 293 cells were seeded onto 96-well black-wall plates for 24 h prior to their use in experiments.
hTRPA1-Flp-In 293 stable cells were seeded onto 96-well black-wall CellBIND Surface plates (Corning Inc., Corning, NY, USA) 24h before the assay. The cells were loaded with 5 μM Fluo-4AM (Molecular Probes, Eugene, OR, USA) in assay buffer for 30 min at 27°C, washed with assay buffer, and incubated for 15 min at 27°C. Subsequently, the cytosolic Ca^2+ concentration was measured using a Flex StationIII microplate reader (Molecular Devices). Sample solutions were loaded after a 17s baseline scan and ligand-induced changes in fluorescence intensity (excitation, 486 nm; emission, 516 nm; cutoff, 515 nm) were monitored at 2.1s intervals for 120s. The response of each well is represented as the change in relative fluorescence units (ΔRFU), which was defined as the maximum fluorescence value minus the minimum fluorescence value. All experiments were performed at least three times. Plots of amplitude versus ligand concentration were fitted using Hill’s equations.
Dose-response analyses were carried out with GraphPad Prism (GraphPad Software Inc., San Diego, CA, USA). The data represent the mean ± SEM.

hTRPV1 = biological target: T2, hTRPV1 (Homo sapiens, UniProt Q8NER1); assay: Fura-2 AM ratiometric Ca2+ imaging of HEK293T cells transiently expressing hTRPV1 (responding cells %); conditions: for activation of hTRPV1 (cytosolic Ca2+ influx, responding cells): extract 300 μg/mL, capsaicin 0.1 μM, ten compounds at 0.1-1 mM; for inhibition of Ca2+ responses induced by the A.rugosa extract in hTRPV1 cells: antagonist: RR 30 μM, CPZ 5 μM, HEK293T cells transiently expressing hTRPV1
T2 construct: host or cells: HEK293T cells, transient transfection with pEAK10-hTRPV1
Protocol: HEK293T cells cultured at 37°C in DMEM supplemented with 10% FBS and 1% penicillin/streptomycin (Invitrogen) were seeded onto 100 mm dishes and transfected with the hTRPV1 expression plasmid using Lipofectamine 2000. After 6 h, the transfected cells were seeded onto 96-well black-wall plates for 24 h prior to their use in experiments.
(§1) Non-hTRPA1-expressing Flp-In 293 cells, HEK293T cells, hTRPA1-Flp-In 293 stable cells, and HEK293T cells transiently expressing hTRPV1 were seeded onto 96-well black-wall imaging plates (BD Falcon Labware, Franklin Lakes, NJ, USA) for 24 h prior to their use in experiments. After 24 h, the cells were washed with assay buffer (130 mM NaCl, 10 mM glucose, 5 mM KCl, 2 mM CaCl2, 1.2 mM MgCl2, and 10 mM HEPES [pH 7.4]) and loaded with the Ca^2+ indicator dye Fura-2AM (5 μM; Invitrogen) in assay buffer for 30 min at 27°C. The cells were rinsed with assay buffer, incubated in 100 μl of assay buffer for >10 min, and then treated with ligand by adding 100 μl of the ligand solution. […] The fluorescence intensity of Fura-2 AM excited at 340 and 380 nm was measured at 510 nm using a computer-controlled filter changer (Lambda DG4; Sutter Instrument Co., San Rafael, CA, USA), an Andor Luca CCD camera (Andor Technology, Belfast, Northern Ireland), and an inverted fluorescence microscope (IX-71; Olympus, Tokyo, Japan). Images were recorded at 3 s intervals and were analyzed using MetaFluor software (Molecular Devices, Sunnyvale, CA, USA).

hTRPA1 [2] = biological target: T1, hTRPA1; assay: Whole-cell patch clamp recording of hTRPA1 currents; conditions: for induction of hTRPA1 inward currents: holding -70 mV, 30 s application, hTRPA1-Flp-In 293 stable cells and HEK293T cells transiently expressing hTRPA1, AITC 30 μM, 4-allylanisole 3 mM, p-anisaldehyde 6 mM, L-carveol 1.8 mM, methyl eugenol 900 μM, trans-p-methoxycinnamaldehyde 1 mM
Protocol: For the transient expression of hTRPA1, HEK293T cells (ATCC: CRL-11268) cultured at 37°C in DMEM supplemented with 10% FBS and 1% penicillin/streptomycin (Invitrogen) were transfected using Lipofectamine 2000 (Invitrogen) and 0.1μg of cDNA encoding tetrameric red fluorescence protein (DsRed) was co-transfected as a marker for successfully transfected cells. The hTRPA1expressing plasmid was generously given to us from Kyeongjin Kang (Sungkyunkwan University School of Medicine, Suwon, Korea). The next day, cells were plated onto poly-L-lysine (0.1 mg/ml, Sigma-Aldrich) coated chips, and the fluorescent cells were studied within 2 days after transfection.
Cells were voltage clamped in the whole-cell recording configuration at room temperature (22–25°C). The resistance of electrodes pulled from glass micropipette capillaries (Sutter Instrument Co., Novato, CA, USA) was 2–2.5 MΩ with >60% compensation of series resistance errors. Fast and slow capacitances were compensated before application of the test pulse. Membrane currents were recorded using a HEKA EPC-10 amplifier with pulse software (HEKA Elektronik, Lambrecht, Germany). The pipette solution used for recording hTRPA1 currents contained 140 mM KCl, 5 mM MgCl2, 10 mM HEPES, 0.1 mM 1,2-bis(2-aminophenoxy)ethane-N,N,N',N'-tetraacetic acid (BAPTA), 3 mM Na2ATP, and 0.1 mM Na3GTP (adjusted to pH 7.4 with KOH). The external Ringer’s solution used for recording hTRPA1 currents contained 160 mM NaCl, 5 mM KCl, 1 mM MgCl2, 2 mM EGTA, 10 mM glucose, and 10 mM HEPES (adjusted to pH 7.4with NaOH). hTRPA1 currents were recorded by holding the cell at -70 mV. The following reagents were obtained: BAPTA, Na2ATP, Na3GTP, and EGTA (Sigma-Alrich), HEPES (Calbiochem, San Diego, CA, USA), and other chemicals (Merck, Township, NJ, USA).

hTRPA1 [3] = biological target: T1, hTRPA1; assay: Fura-2 AM ratiometric Ca2+ imaging of hTRPA1-Flp-In 293 stable cells; conditions: for activation of hTRPA1 (cytosolic Ca2+ influx): extract 300 μg/mL, AITC 30 μM, 4-allylanisole 1 mM; for activation of hTRPA1 (cytosolic Ca2+ influx) / block of Ca2+ influxes induced by the five active compounds in hTRPA1 cells: p-anisaldehyde 1 mM, L-carveol 300 μM, trans-p-methoxycinnamaldehyde 100 μM, methyl eugenol 300 μM; for block of Ca2+ influxes induced by the five active compounds in hTRPA1 cells / inhibition of Ca2+ responses induced by AITC and the A.rugosa extract in hTRPA1 cells: antagonist: RR 30 μM, HC-030031 100 μM; for block of Ca2+ influxes induced by the five active compounds in hTRPA1 cells: agonists 4-allylanisole 1 mM; for inhibition of Ca2+ responses induced by AITC and the A.rugosa extract in hTRPA1 cells: hTRPA1-Flp-In 293 stable cells
Protocol: Flp-In 293 cells stably expressing hTRPA1 [22] were a gift from Dr. Takumi Misaka (University of Tokyo, Tokyo, Japan). The hTRPA1-expressing cells were maintained in Dulbecco’s modified Eagle’s medium (DMEM; Invitrogen, Carlsbad, CA, USA) containing 10% fetal bovine serum (FBS; Invitrogen) and 0.2% hygromycin B (Invitrogen). Flp-In 293 cells (Invitrogen: R750-07) were maintained in DMEM containing 10% FBS. All cells were incubated at 37°C in a humidified atmosphere containing 5% CO2. Cultured hTRPA1-expressing cells and Flp-In 293 cells were seeded onto 96-well black-wall plates for 24 h prior to their use in experiments.
as §1

[4] = hTRPA1-Flp-In 293 stable cells, Fluo-4 AM
[5] = hTRPA1-Flp-In 293 stable cells, Fluo-4 AM, ΔRFU, Hill fit, seven independent experiments, mean ± SEM, read-out: EC50 of Ca2+ response

T1 sequence (O75762 whole entry): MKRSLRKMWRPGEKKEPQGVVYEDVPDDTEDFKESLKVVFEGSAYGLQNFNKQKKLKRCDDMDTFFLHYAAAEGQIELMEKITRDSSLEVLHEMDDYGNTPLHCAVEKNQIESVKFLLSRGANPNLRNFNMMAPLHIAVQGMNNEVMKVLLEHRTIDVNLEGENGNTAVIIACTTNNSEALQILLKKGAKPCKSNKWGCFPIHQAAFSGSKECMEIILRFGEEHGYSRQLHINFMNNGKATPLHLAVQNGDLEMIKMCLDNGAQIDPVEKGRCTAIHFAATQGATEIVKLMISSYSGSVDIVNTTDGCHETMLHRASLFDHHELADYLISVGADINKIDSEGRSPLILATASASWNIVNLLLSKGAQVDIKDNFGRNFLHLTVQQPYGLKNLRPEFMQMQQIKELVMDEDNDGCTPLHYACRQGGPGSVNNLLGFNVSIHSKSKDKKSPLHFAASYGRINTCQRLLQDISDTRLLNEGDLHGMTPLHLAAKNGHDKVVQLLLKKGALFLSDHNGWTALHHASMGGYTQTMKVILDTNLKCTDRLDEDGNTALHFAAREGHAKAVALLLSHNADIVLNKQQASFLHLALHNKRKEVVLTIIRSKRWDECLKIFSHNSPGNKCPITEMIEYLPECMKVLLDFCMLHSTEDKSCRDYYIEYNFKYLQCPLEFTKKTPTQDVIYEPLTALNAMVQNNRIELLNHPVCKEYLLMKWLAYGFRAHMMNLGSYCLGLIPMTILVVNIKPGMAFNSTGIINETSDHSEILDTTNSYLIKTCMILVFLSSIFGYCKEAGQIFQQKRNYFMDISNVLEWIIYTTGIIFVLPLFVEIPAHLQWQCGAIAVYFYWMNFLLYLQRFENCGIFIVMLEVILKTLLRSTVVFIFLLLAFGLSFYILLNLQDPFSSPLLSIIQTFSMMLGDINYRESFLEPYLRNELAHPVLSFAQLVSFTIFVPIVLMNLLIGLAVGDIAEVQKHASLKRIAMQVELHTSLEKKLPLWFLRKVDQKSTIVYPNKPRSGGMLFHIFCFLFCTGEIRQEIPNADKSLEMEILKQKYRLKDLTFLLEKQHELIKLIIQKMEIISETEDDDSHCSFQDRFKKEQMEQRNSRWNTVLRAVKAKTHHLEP
T2 sequence (Q8NER1 whole entry): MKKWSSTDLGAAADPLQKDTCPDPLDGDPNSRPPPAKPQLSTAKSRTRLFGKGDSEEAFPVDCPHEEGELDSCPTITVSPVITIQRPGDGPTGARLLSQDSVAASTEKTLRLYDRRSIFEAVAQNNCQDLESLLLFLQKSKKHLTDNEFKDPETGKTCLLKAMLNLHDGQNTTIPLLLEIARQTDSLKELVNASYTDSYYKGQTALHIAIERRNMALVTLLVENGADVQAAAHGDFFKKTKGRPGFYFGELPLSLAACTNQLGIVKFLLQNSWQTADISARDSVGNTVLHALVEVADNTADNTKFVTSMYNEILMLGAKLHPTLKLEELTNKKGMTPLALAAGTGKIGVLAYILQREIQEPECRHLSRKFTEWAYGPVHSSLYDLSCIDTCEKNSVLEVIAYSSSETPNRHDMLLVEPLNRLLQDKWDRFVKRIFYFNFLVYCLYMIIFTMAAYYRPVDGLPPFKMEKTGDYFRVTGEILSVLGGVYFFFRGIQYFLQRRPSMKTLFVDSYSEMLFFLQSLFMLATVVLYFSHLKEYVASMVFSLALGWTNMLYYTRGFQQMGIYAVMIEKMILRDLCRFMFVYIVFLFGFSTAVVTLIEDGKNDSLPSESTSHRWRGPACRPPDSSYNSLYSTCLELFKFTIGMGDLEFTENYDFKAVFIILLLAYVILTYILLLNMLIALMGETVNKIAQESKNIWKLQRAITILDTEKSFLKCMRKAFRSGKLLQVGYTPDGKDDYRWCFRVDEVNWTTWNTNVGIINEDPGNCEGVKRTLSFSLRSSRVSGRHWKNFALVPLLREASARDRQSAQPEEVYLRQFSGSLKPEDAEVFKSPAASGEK

Structure (SMILES)	efficacy (maximum ΔRFU) relative to that of AITC (hTRPA1 [1]; [4]) [%]	Hill slope of Ca2+ concentration-response curve (hTRPA1 [1]; [4])	EC50 (hTRPA1 [1]; [5]) [µM]	agonist type at hTRPA1 (full / partial) (hTRPA1 [1])	activation of hTRPV1 (cytosolic Ca2+ influx, responding cells) (hTRPV1)	induction of hTRPA1 inward currents (hTRPA1 [2])	activation of hTRPA1 (cytosolic Ca2+ influx) (hTRPA1 [3])	inhibition of Ca2+ responses induced by the A.rugosa extract in hTRPV1 cells (hTRPV1)	block of hTRPA1 currents evoked by AITC and five compounds (hTRPA1 [2]; 30 μM RR, pre-incubation 30 s before second application of compounds)	block of Ca2+ influxes induced by the five active compounds in hTRPA1 cells (hTRPA1 [3])	inhibition of Ca2+ responses induced by AITC and the A.rugosa extract in hTRPA1 cells (hTRPA1 [3])	EC50 (hTRPA1 [1]) [µM]
COc1ccc(C=O)cc1 [p-anisaldehyde]	64.2	2.0±0.5	546 ± 73	partial agonists	did not activate hTRPV1	induced inward currents	activated hTRPA1	–	–	–	–	–
COc1cc(CNC(=O)CCCC/C=C/C(C)C)ccc1O [capsaicin, reference compound]	–	–	–	–	significantly stimulated	–	–	–	–	–	–	–
C=CCc1ccc(OC)c(OC)c1 [methyl eugenol]	–	1.4±0.3	160 ± 21.9	almost full agonists	did not activate hTRPV1	induced inward currents	activated hTRPA1	–	–	–	–	–
COc1ccc(/C=C/C=O)cc1 [trans-p-methoxycinnamaldehyde]	–	2.2±0.7	29.8 ± 14.9	almost full agonists	did not activate hTRPV1	induced inward currents	activated hTRPA1	–	–	–	–	–
N.N.N.N.N.N.N.N.N.N.N.N.N.N.[Cl-].[Cl-].[Cl-].[Cl-].[Cl-].[Cl-].[O-2].[O-2].[Ru+3].[Ru+3].[Ru+4] [RR, ruthenium red, reference compound]	–	–	–	–	–	–	–	inhibited	completely blocked	mostly blocked	inhibited	–
Oc1cc2c(cc1O)CN(C(=S)NCCc1ccc(Cl)cc1)CCC2 [CPZ, capsazepine, reference compound]	–	–	–	–	–	–	–	inhibited	–	–	–	–
C=C(C)[C@@H]1CC=C(C)C(O)C1 (stereo partly drawn) [L-carveol]	–	2.9±0.5	–	almost full agonists	did not activate hTRPV1	induced inward currents	activated hTRPA1	–	–	–	–	189 ± 26.8
CC(C)c1ccc(NC(=O)Cn2cnc3c2c(=O)n(C)c(=O)n3C)cc1 [HC-030031, reference compound]	–	–	–	–	–	–	–	–	–	mostly blocked	inhibited	–
C=CCN=C=S [AITC, allyl isothiocyanate, reference compound]	–	1.6±0.5	–	–	–	induced inward currents	successfully activated	–	–	–	–	–
C=CCc1ccc(OC)cc1 [4-allylanisole]	59.9	1.7±0.3	1540 ± 316	partial agonists	did not activate hTRPV1	induced inward currents	activated hTRPA1	–	–	–	–	–
